These results are taken from patent US20120035217A1, “Bis Aromatic Compounds for Use as LTC4 Synthase Inhibitors” (BIOLIPOX AB, priority 2009, published 2012).

The assay concerns the target T1, Recombinant human LTC4 synthase (Homo sapiens, UniProt Q16873).
T1 construct: made in house; host or cells: Pichia pastoris ('Piccia pastoralis' [sic])
T1 sequence (Q16873 1-150): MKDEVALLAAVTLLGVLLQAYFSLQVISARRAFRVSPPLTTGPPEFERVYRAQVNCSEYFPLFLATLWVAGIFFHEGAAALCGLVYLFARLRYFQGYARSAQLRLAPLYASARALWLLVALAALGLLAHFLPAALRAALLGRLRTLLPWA
Put plainly: Biological in vitro assay: LTC4 synthase conversion of LTA4 to LTC4, HTRF detection. It counts as biochemical. Particulars: for % inhibition: total concentration of title compound in the assay 10 μM. The protocol:
In the assay, LTC4 synthase catalyses the reaction where the substrate LTA4 is converted to LTC4. Recombinant human LTC4 synthase is expressed in Piccia pastoralis and the purified enzyme is dissolved in 25 mM tris-buffer pH 7.8 supplemented with 0.1 mM glutathione (GSH) and stored at −80° C. The assay is performed in phosphate buffered saline (PBS) pH 7.4 and 5 mM GSH in 384-well plates.
The following is added chronologically to each well:
1. 48 μL LTC4 synthase in PBS with 5 mM GSH. The total protein concentration in this solution is 0.5 μg/mL. 2. 1 μL inhibitor in DMSO (final concentration 10 μM). 3. Incubation of the plate at room temperature for 10 min. 4. 1 μL LTA4 (final concentration 2.5 μM). 5. Incubation of the plate at room temperature for 5 min. 6. 10 μL of the incubation mixture is analysed using homogenous time resolved fluorescent (HTRF) detection.
(TR-FRET usually uses a lanthanide donor and a delayed reading to cut background.)

`CN(c1ccc(Cl)cc1)c1ccc(C(=O)c2ccc(-n3nncc3-c3cccc(Cl)c3)c(C(=O)O)c2)cc1` [Example 3:2, 5-{4-[(4-Chlorophenyl)(methyl)amino]benzoyl}-2-[5-(3-chlorophenyl)-1,2,3-triazol-1-yl]benzoic acid]: the IC50 (as a rule, the concentration that inhibits the measured activity by half) amounted to 36 nM and the % inhibition – broadly, how much of the control response was suppressed – amounted to 100%.

Take `CN(c1ccc(Cl)cc1)c1ccc(C(=O)c2ccc(-c3nccn3-c3ccccc3)c(C(=O)O)c2)nc1` [Example 9, 5-{5-[(4-Chlorophenyl)(methyl)amino]picolinoyl}-2-(1-phenylimidazol-2-yl)benzoic acid]: the IC50 came to 217 nM.

Take `CN(c1ccc(Cl)cc1)c1ccc(C(=O)c2ccc(-n3nncc3-c3ccccc3)c(C(=O)O)c2)cc1` [Example 3:1, 5-{4-[(4-Chlorophenyl)(methyl)amino]benzoyl}-2-(5-phenyl-1,2,3-triazol-1-yl)-benzoic acid]: the IC50 stood at 154 nM and the “% inhibition” value was 100%.

Regarding `Cc1cc2ncn(-c3ccc(C(=O)c4ccc(N(C)c5ccc(Cl)cc5)cc4)cc3C(=O)O)c2cc1C` [Example 1, 5-{4-[(4-Chlorophenyl)(methyl)amino]benzoyl}-2-(5,6-dimethyl-1-benzimidazolyl)-benzoic acid], the IC50 stood at 288 nM and the “% inhibition” value was 97%.

`CN(c1ccc(Cl)cc1)c1ccc(C(=O)c2ccc(-n3cc(-c4cccc(Cl)c4)nn3)c(C(=O)O)c2)cc1` [Example 2:2, 5-{4-[(4-Chlorophenyl)(methyl)amino]benzoyl}-2-[4-(3-chlorophenyl)-1,2,3-triazol-1-yl]benzoic acid]: the IC50 was found to be 214 nM and the “% inhibition” value was determined as 99%.

`CN(c1ccc(Cl)cc1)c1ccc(C(=O)c2ccc(-n3cc(-c4ccccc4)nn3)c(C(=O)O)c2)cc1` [Example 2:1, 5-{4-[(4-Chlorophenyl)(methyl)amino]benzoyl}-2-(4-phenyl-1,2,3-triazol-1-yl)-benzoic acid]: the IC50 worked out at 326 nM and the “% inhibition” value amounted to 99%.
